Experimental data taken from US20220125765A1, “PHARMACEUTICAL COMBINATIONS COMPRISING MEBENDAZOLE AND A STRONG OR MODERATE CYP1A2 INHIBITOR” (ZEPHAPHARM LTD, priority 2019, published 2022).
Where two headings read alike, the source gives them in different places.

Key:
[1] = in vitro; details: human, cryopreserved hepatocytes (suspension)
Protocol: The amount of test compound remaining at each time point was analysed by LC-MS/MS. Appropriate control compounds were also incubated.
The final incubation volume was 500 μL. Appropriate control compounds were included, alongside appropriate vehicle control.
The reactions were stopped by transferring 50 μL of incubate to 100 μL acetonitrile containing internal standard at the appropriate time points (0, 5, 10, 20, 40 and 60 min). The termination plates were centrifuged at 2500 rpm at 4° C. for 30 min to precipitate the protein.

[2] = system: 786-O; test: 2D monolayer CellTiter-Blue viability, renal cancer 786-O; assay type: cell-based; details: for IC50: Homo sapiens, 786-0, 72 h
Protocol: Mebendazole was tested in vitro across a panel of 12 tumor cell lines of ovarian and renal cancer by using a 2D monolayer assay. […] OVXF 899L and RXF 486L are P-gp expressing, multidrug resistant cell lines.
Anti-tumor activity is expressed as absolute and relative IC50/70 values, calculated by 4-parameter non-linear curve fit.

[3] = system: SXFS RH-30; test: 2D monolayer CellTiter-Blue viability, soft tissue sarcoma RH-30; assay type: cell-based; details: 72 h
Protocol: (§1) Seventeen compounds, including mebendazole (Batch no. […] Efficacy of compounds was assessed using CellTiter-Blue® Cell Viability Assay. Anti-tumor activity is expressed as absolute and relative IC50 and IC70 values, calculated by non-linear regression analysis.

[4] = system: SXFS A-204; test: 2D monolayer CellTiter-Blue viability, soft tissue sarcoma A-204; assay type: cell-based; details: 72 h
Protocol: as §1

[5] = system: NBXF SK-N-MC; test: 2D monolayer CellTiter-Blue viability, neuroblastoma SK-N-MC; assay type: cell-based; details: 72 h
Protocol: as §1

[6] = in vitro; details: human, hepatocytes, t½
[7] = system: SXFO 678; test: 2D monolayer CellTiter-Blue viability, osteosarcoma SXFO 678; assay type: cell-based; details: 72 h
Protocol: as §1

[8] = biological target: CYP2D6 (Homo sapiens, UniProt P10635); test: Cytochrome P450 reaction phenotyping, recombinant CYP2D6 (Bactosomes)
Protocol: (§2) Incubations were also performed using control Bactosomes™ (no P450 enzymes present) to reveal any non-enzymatic degradation. Control compounds known to be metabolised specifically by each P450 isoform were included. All incubations were performed singularly for each test compound.
(§3) Incubations were also performed using control Bactosomes™ (no P450 enzymes present) to reveal any non-enzymatic degradation. Control compounds known to be metabolised specifically by each P450 isoform were included. All incubations were performed singularly for each test compound. […] The reactions were stopped by transferring an aliquot of incubate to quench solvent at the appropriate time points, in a 1:3 ratio. The termination plates were centrifuged at 3,000 rpm for 20 min at 4° C. to precipitate the protein.

[9] = biological target: T1, CYP2B6 (Homo sapiens, UniProt P20813); test: Cytochrome P450 reaction phenotyping, recombinant CYP2B6 (Bactosomes)
T1 sequence (P20813 1-491): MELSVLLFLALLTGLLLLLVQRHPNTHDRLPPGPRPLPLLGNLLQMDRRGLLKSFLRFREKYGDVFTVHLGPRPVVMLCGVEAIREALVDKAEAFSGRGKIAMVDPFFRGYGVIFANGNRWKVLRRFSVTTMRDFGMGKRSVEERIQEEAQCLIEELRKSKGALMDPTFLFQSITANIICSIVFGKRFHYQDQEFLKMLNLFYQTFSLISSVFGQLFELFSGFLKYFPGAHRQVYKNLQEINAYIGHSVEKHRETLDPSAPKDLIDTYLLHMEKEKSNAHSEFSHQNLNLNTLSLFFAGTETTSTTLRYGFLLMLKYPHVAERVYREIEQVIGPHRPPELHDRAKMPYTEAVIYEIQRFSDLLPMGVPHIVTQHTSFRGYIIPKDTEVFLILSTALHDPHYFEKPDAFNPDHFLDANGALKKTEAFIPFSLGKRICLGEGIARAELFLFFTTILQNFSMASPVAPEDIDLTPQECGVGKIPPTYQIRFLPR
Protocol: as §2, §3

CYP2D6, sequence (P10635 whole entry, canonical isoform): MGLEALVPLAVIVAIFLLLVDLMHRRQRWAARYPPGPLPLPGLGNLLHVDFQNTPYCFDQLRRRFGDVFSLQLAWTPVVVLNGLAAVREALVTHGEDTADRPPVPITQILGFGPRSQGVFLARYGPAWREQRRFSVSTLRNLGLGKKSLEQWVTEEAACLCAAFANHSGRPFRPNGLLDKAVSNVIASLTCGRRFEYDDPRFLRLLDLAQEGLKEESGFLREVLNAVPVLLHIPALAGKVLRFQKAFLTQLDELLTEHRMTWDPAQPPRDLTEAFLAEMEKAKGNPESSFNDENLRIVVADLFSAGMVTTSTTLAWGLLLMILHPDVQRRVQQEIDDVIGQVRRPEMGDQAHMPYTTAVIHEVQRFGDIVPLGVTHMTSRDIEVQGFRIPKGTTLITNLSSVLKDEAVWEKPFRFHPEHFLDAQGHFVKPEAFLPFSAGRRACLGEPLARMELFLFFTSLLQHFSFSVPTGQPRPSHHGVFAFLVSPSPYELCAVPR

half-life at 1 μM [1]: 1.52 h
hepatocyte CLint at 1 µM [1]: 15.2 µL/min/1e6 cells
half-life at 1 μM ([1]; with fluvoxamine 10 μM): 30.7 h
hepatocyte CLint at 1 µM ([1]; with fluvoxamine 10 μM): 0.751 µL/min/1e6 cells
half-life at 1 μM ([1]; with fluvoxamine 300 μM): 3.75 h
hepatocyte CLint at 1 µM ([1]; with fluvoxamine 300 μM): 6.16 ± 1.7 µL/min/1e6 cells
half-life at 1 μM ([1]; with mexiletine 10 μM): 2.27 h
half-life at 1 μM ([1]; with mexiletine 30 μM): 11.9 h
half-life at 1 μM ([1]; with mexiletine 100 μM): 5.28 h
half-life at 1 μM ([1]; with mexiletine 300 μM): 11.1 h
hepatocyte CLint at 1 µM ([1]; with mexiletine 300 μM): 2.08 ± 1.8 µL/min/1e6 cells
IC50 ([2]; read-out: Abs. IC50): 470 nM
IC50 ([2]; read-out: Rel. IC50): 457 nM
half-life at 1 μM [6]: 1.54 h
Compound Remaining (% of 0 min) ([8]; CYP2D6, 5 μM, 0 min): 100 % of 0 min
Compound Remaining (% of 0 min) ([8]; CYP2D6, 5 μM, 5 min): 93.6 % of 0 min
Compound Remaining (% of 0 min) ([8]; CYP2D6, 5 μM, 15 min): 93.3 % of 0 min
Compound Remaining (% of 0 min) ([8]; CYP2D6, 5 μM, 30 min): 94.6 % of 0 min
Compound Remaining (% of 0 min) ([8]; CYP2D6, 5 μM, 45 min): 90.4 % of 0 min
% compound remaining ([8]; CYP2D6, 5 μM, time not stated): > 87.5%
t1/2 ([8]; CYP2D6, substrate 5 μM): >2.25 h
half-life at 5 μM ([8]; human, recombinant CYP2D6 (Bactosomes), pH 7.4): > 2.25 h
Compound Remaining (% of 0 min) ([9]; CYP2B6, 5 μM, 0 min): 100 % of 0 min
Compound Remaining (% of 0 min) ([9]; CYP2B6, 5 μM, 5 min): 117 % of 0 min
Compound Remaining (% of 0 min) ([9]; CYP2B6, 5 μM, 15 min): 108 % of 0 min
Compound Remaining (% of 0 min) ([9]; CYP2B6, 5 μM, 30 min): 112 % of 0 min
Compound Remaining (% of 0 min) ([9]; CYP2B6, 5 μM, 45 min): 113 % of 0 min
% compound remaining ([9]; CYP2B6, 5 μM, time not stated): > 87.5%
t1/2 ([9]; CYP2B6, substrate 5 μM): >2.25 h
half-life at 5 μM ([9]; human, recombinant CYP2B6 (Bactosomes), pH 7.4): > 2.25 h
Structure (SMILES): COC(=O)Nc1nc2ccc(C(=O)c3ccccc3)cc2[nH]1 [Mebendazole, methyl N-(6-benzoyl-1H-benzimidazol-2-yl)carbamate]
Test/Control (%) at Drug Concentration ([2]; 1.0E+00 μM, 72 h): 20%
Test/Control (%) at Drug Concentration ([2]; 1.0E−01 μM, 72 h): 95%
Test/Control (%) at Drug Concentration ([2]; 1.0E−02 μM, 72 h): 87%
Test/Control (%) at Drug Concentration ([2]; 1.0E−03 μM, 72 h): 98%
Test/Control (%) at Drug Concentration ([2]; 1.0E−04 μM, 72 h): 107%
Test/Control (%) at Drug Concentration ([2]; 3.2E+00 μM, 72 h): 9%
Test/Control (%) at Drug Concentration ([2]; 3.2E−01 μM, 72 h): 69%
Test/Control (%) at Drug Concentration ([2]; 3.2E−02 μM, 72 h): 88%
Test/Control (%) at Drug Concentration ([2]; 3.2E−03 μM, 72 h): 97%
Test/Control (%) at Drug Concentration ([2]; 3.2E−04 μM, 72 h): 87%
Abs. IC70 ([2]; 72 h): 712 nM
Rel. IC70 ([2]; 72 h): 640 nM
Bot. (%) ([2]; 72 h, curve fit): 9%
Top (%) ([2]; 72 h, curve fit): 94%
Test/Control (%) at Drug Concentration ([3]; RH-30, 1.0E+00 μM): 19%
Test/Control (%) at Drug Concentration ([3]; RH-30, 1.0E+01 μM): 20%
Test/Control (%) at Drug Concentration ([3]; RH-30, 1.0E+02 μM): 5%
Test/Control (%) at Drug Concentration ([3]; RH-30, 1.0E−01 μM): 89%
Test/Control (%) at Drug Concentration ([3]; RH-30, 1.0E−02 μM): 104%
Test/Control (%) at Drug Concentration ([3]; RH-30, 3.2E+00 μM): 21%
Test/Control (%) at Drug Concentration ([3]; RH-30, 3.2E+01 μM): 13%
Test/Control (%) at Drug Concentration ([3]; RH-30, 3.2E−01 μM): 20%
Test/Control (%) at Drug Concentration ([3]; RH-30, 3.2E−02 μM): 95%
Test/Control (%) at Drug Concentration ([3]; RH-30, 3.2E−03 μM): 111%
Test/Control (%) at Drug Concentration ([4]; A-204, 1.0E+00 μM): 45%
Test/Control (%) at Drug Concentration ([4]; A-204, 1.0E+01 μM): 28%
Test/Control (%) at Drug Concentration ([4]; A-204, 1.0E+02 μM): 10%
Test/Control (%) at Drug Concentration ([4]; A-204, 1.0E−01 μM): 79%
Test/Control (%) at Drug Concentration ([4]; A-204, 1.0E−02 μM): 96%
Test/Control (%) at Drug Concentration ([4]; A-204, 3.2E+00 μM): 35%
Test/Control (%) at Drug Concentration ([4]; A-204, 3.2E+01 μM): 20%
Test/Control (%) at Drug Concentration ([4]; A-204, 3.2E−01 μM): 60%
Test/Control (%) at Drug Concentration ([4]; A-204, 3.2E−02 μM): 83%
Test/Control (%) at Drug Concentration ([4]; A-204, 3.2E−03 μM): 114%
Test/Control (%) at Drug Concentration ([5]; 1.0E+00 μM): 33%
Test/Control (%) at Drug Concentration ([5]; 1.0E+01 μM): 1%
Test/Control (%) at Drug Concentration ([5]; 1.0E+02 μM): 0%
Test/Control (%) at Drug Concentration ([5]; 1.0E−01 μM): 90%
Test/Control (%) at Drug Concentration ([5]; 1.0E−02 μM): 88%
Test/Control (%) at Drug Concentration ([5]; 3.2E+00 μM): 6%
Test/Control (%) at Drug Concentration ([5]; 3.2E+01 μM): 1%
Test/Control (%) at Drug Concentration ([5]; 3.2E−01 μM): 38%
Test/Control (%) at Drug Concentration ([5]; 3.2E−02 μM): 100%
Test/Control (%) at Drug Concentration ([5]; 3.2E−03 μM): 101%
Test/Control (%) at Drug Concentration ([7]; SXFO 678, 1.0E+00 μM): 11%
Test/Control (%) at Drug Concentration ([7]; SXFO 678, 1.0E+01 μM): 28%
Test/Control (%) at Drug Concentration ([7]; SXFO 678, 1.0E+02 μM): 11%
Test/Control (%) at Drug Concentration ([7]; SXFO 678, 1.0E−01 μM): 64%
Test/Control (%) at Drug Concentration ([7]; SXFO 678, 1.0E−02 μM): 87%
Test/Control (%) at Drug Concentration ([7]; SXFO 678, 3.2E+00 μM): 22%
Test/Control (%) at Drug Concentration ([7]; SXFO 678, 3.2E+01 μM): 21%
Test/Control (%) at Drug Concentration ([7]; SXFO 678, 3.2E−01 μM): 14%
Test/Control (%) at Drug Concentration ([7]; SXFO 678, 3.2E−02 μM): 88%
Test/Control (%) at Drug Concentration ([7]; SXFO 678, 3.2E−03 μM): 90%
